Results from PMC8453943 (Clinical Pharmacology in Drug Development, 2021).
Like-named read-outs stand apart in the source and are kept apart here.

What was measured:
[1] = cited from earlier work
[2] = Safety and tolerability assessments; assay type: in vivo, human
[3] = Part 1 single-ascending-dose study, urine PK; assay type: in vivo, human; conditions: within 48 hours, across all dose groups
[4] = Part 2 effect of a low-fat meal on PK; assay type: in vivo, human; conditions: for AUC(0-inf) / Cmax / Tmax: human, plasma, oral; for Tmax: Median (range)
[5] = preclinical studies; cited from earlier work
[6] = Dose proportionality, power model on pooled exposure data; assay type: in vivo, human; conditions: 40- to 160-mg dose range, pooled parts 1-3
[7] = repeat dosing, animals; dermal and gastrointestinal toxicities; cited from earlier work
[8] = cited from earlier work; remark: listed apart in the source
[9] = Part 3 relative bioavailability of capsule B vs capsule A; assay type: in vivo, human
[10] = Part 1 single-ascending-dose study, plasma PK; assay type: in vivo, human; conditions: for Tmax: human, plasma, po; for CL/F, Geometric mean (% CV) / CL/F, Mean (SD): fasted
[11] = in vitro assays; cited from earlier work
CYP3A4/5 = conditions: recombinant human CYPs, in vitro; cited from earlier work
EGFR = conditions: NSCLC with EGFR exon 20 insertion mutations; cited from earlier work
[12] = AEs in ≥10% of volunteers in any part
[13] = part 1, overall (N = 40, includes pooled placebo)
[14] = part 2, 120 mg, low-fat meal (n = 6)
[15] = part 2, 160 mg, fasted (n = 10)
[16] = part 2, 160 mg, low-fat meal (n = 10)
[17] = part 3, mobocertinib 160 mg, overall (N = 13)
[18] = 120 mg, Geometric mean (% CV), part 2, 120 mg, fasted
[19] = 120 mg, Geometric mean (% CV), part 2, 120 mg, low-fat meal
[20] = 120 mg, Mean (SD), part 2, 120 mg, fasted
[21] = 120 mg, Mean (SD), part 2, 120 mg, low-fat meal
[22] = 160 mg, Geometric mean (% CV), part 2, 160 mg, fasted
[23] = 160 mg, Geometric mean (% CV), part 2, 160 mg, low-fat meal
[24] = 160 mg, Mean (SD), part 2, 160 mg, fasted
[25] = 160 mg, Mean (SD), part 2, 160 mg, low-fat meal
[26] = part 2, 120 mg, low-fat meal (test) vs fasted (reference)
[27] = part 3, 160 mg, fasted, capsule B (test) vs capsule A (reference)
[28] = part 1, 120 mg single oral dose
[29] = part 1, 160 mg single oral dose

C=CC(=O)Nc1cc(Nc2ncc(C(=O)OC(C)C)c(-c3cn(C)c4ccccc34)n2)c(OC)cc1N(C)CCN(C)C [Mobocertinib]
Permeability [1]: high permeability
Solubility [1]: high solubility
Diarrhea [2, 12]: 10.0%
Flatulence [2, 12]: 12.5%
Soft feces [2, 12]: 12.5%
Serious AEs ([2]; all parts): No serious AEs were reported
Volunteers who experienced AEs ([2]; part 1 (includes pooled placebo)): 48%
AE leading to discontinuation ([2]; part 1, 20 mg (n = 6)): 0 n (%)
Any AE ([2]; part 1, 20 mg (n = 6)): 2 (33) n (%)
Grade 1 AE ([2]; part 1, 20 mg (n = 6)): 2 (33) n (%)
Grade 2 AE ([2]; part 1, 20 mg (n = 6)): 0 n (%)
Grade ≥3 AE ([2]; part 1, 20 mg (n = 6)): 0 n (%)
Treatment-related AE ([2]; part 1, 20 mg (n = 6)): 1 (17) n (%)
AE leading to discontinuation ([2]; part 1, 40 mg (n = 6)): 0 n (%)
Any AE ([2]; part 1, 40 mg (n = 6)): 3 (50) n (%)
Grade 1 AE ([2]; part 1, 40 mg (n = 6)): 2 (33) n (%)
Grade 2 AE ([2]; part 1, 40 mg (n = 6)): 1 (17) n (%)
Grade ≥3 AE ([2]; part 1, 40 mg (n = 6)): 0 n (%)
Treatment-related AE ([2]; part 1, 40 mg (n = 6)): 0 n (%)
AE leading to discontinuation ([2]; part 1, 80 mg (n = 6)): 0 n (%)
Any AE ([2]; part 1, 80 mg (n = 6)): 4 (67) n (%)
Grade 1 AE ([2]; part 1, 80 mg (n = 6)): 3 (50) n (%)
Grade 2 AE ([2]; part 1, 80 mg (n = 6)): 1 (17) n (%)
Grade ≥3 AE ([2]; part 1, 80 mg (n = 6)): 0 n (%)
Treatment-related AE ([2]; part 1, 80 mg (n = 6)): 3 (50) n (%)
AE leading to discontinuation ([2]; part 1, 120 mg (n = 6)): 0 n (%)
Any AE ([2]; part 1, 120 mg (n = 6)): 3 (50) n (%)
Grade 1 AE ([2]; part 1, 120 mg (n = 6)): 1 (17) n (%)
Grade 2 AE ([2]; part 1, 120 mg (n = 6)): 2 (33) n (%)
Grade ≥3 AE ([2]; part 1, 120 mg (n = 6)): 0 n (%)
Treatment-related AE ([2]; part 1, 120 mg (n = 6)): 0 n (%)
AE leading to discontinuation ([2]; part 1, 160 mg (n = 6)): 0 n (%)
Any AE ([2]; part 1, 160 mg (n = 6)): 5 (83) n (%)
Grade 1 AE ([2]; part 1, 160 mg (n = 6)): 4 (67) n (%)
Grade 2 AE ([2]; part 1, 160 mg (n = 6)): 1 (17) n (%)
Grade ≥3 AE ([2]; part 1, 160 mg (n = 6)): 0 n (%)
Treatment-related AE ([2]; part 1, 160 mg (n = 6)): 3 (50) n (%)
Decrease in serum creatine kinase ([2]; part 1, 20-mg dose group): –26.8 U/L
Decrease in serum creatine kinase ([2]; part 1, 160-mg group): –69.0 U/L
AE leading to discontinuation [2, 13]: 0 n (%)
Any AE [2, 13]: 19 (48) n (%)
Grade 1 AE [2, 13]: 14 (35) n (%)
Grade 2 AE [2, 13]: 5 (13) n (%)
Grade ≥3 AE [2, 13]: 0 n (%)
Treatment-related AE [2, 13]: 9 (23) n (%)
Volunteers who experienced AEs ([2]; part 2): 75%
AE leading to discontinuation ([2]; part 2, 120 mg, fasted (n = 6)): 0 n (%)
Any AE ([2]; part 2, 120 mg, fasted (n = 6)): 3 (50) n (%)
Grade 1 AE ([2]; part 2, 120 mg, fasted (n = 6)): 2 (33) n (%)
Grade 2 AE ([2]; part 2, 120 mg, fasted (n = 6)): 1 (17) n (%)
Grade ≥3 AE ([2]; part 2, 120 mg, fasted (n = 6)): 0 n (%)
Treatment-related AE ([2]; part 2, 120 mg, fasted (n = 6)): 3 (50) n (%)
Treatment-related AE, Grade ≥3 ([2]; part 2, 120 mg, fasted (n = 6)): 0 n (%)
AE leading to discontinuation [2, 14]: 0 n (%)
Any AE [2, 14]: 3 (50) n (%)
Grade 1 AE [2, 14]: 2 (33) n (%)
Grade 2 AE [2, 14]: 0 n (%)
Grade ≥3 AE [2, 14]: 1 (17) n (%)
Treatment-related AE [2, 14]: 2 (33) n (%)
Treatment-related AE, Grade ≥3 [2, 14]: 0 n (%)
AE leading to discontinuation [2, 15]: 0 n (%)
Any AE [2, 15]: 5 (50) n (%)
Grade 1 AE [2, 15]: 5 (50) n (%)
Grade 2 AE [2, 15]: 0 n (%)
Grade ≥3 AE [2, 15]: 0 n (%)
Treatment-related AE [2, 15]: 5 (50) n (%)
Treatment-related AE, Grade ≥3 [2, 15]: 0 n (%)
AE leading to discontinuation [2, 16]: 0 n (%)
Any AE [2, 16]: 7 (70) n (%)
Grade 1 AE [2, 16]: 7 (70) n (%)
Grade 2 AE [2, 16]: 0 n (%)
Grade ≥3 AE [2, 16]: 0 n (%)
Treatment-related AE [2, 16]: 4 (40) n (%)
Treatment-related AE, Grade ≥3 [2, 16]: 0 n (%)
AE leading to discontinuation ([2]; part 2, overall (N = 16)): 0 n (%)
Any AE ([2]; part 2, overall (N = 16)): 12 (75) n (%)
Grade 1 AE ([2]; part 2, overall (N = 16)): 11 (69) n (%)
Grade 2 AE ([2]; part 2, overall (N = 16)): 0 n (%)
Grade ≥3 AE ([2]; part 2, overall (N = 16)): 1 (6) n (%)
Treatment-related AE ([2]; part 2, overall (N = 16)): 8 (50) n (%)
Treatment-related AE, Grade ≥3 ([2]; part 2, overall (N = 16)): 0 n (%)
Volunteers who experienced AEs ([2]; part 3): 46%
AE leading to discontinuation [2, 17]: 1 (8) n (%)
Grade 1 AE [2, 17]: 5 (39) n (%)
Grade 2 AE [2, 17]: 1 (8) n (%)
Grade ≥3 AE [2, 17]: 0 n (%)
Treatment-related AE [2, 17]: 2 (15) n (%)
Volunteers with AEs [2, 17]: 6 (46) n (%)
Single doses tolerated in healthy adult volunteers ([2]; single oral dose): up to 160 mg
Administered mobocertinib dose excreted unchanged in urine [3]: < 1.2%
AUC(0-inf) [4, 18]: 526 ng·h/mL
AUC(0-inf) [4, 19]: 534 ng·h/mL
AUC(0-inf) [4, 20]: 587 ng·h/mL
AUC(0-inf) [4, 21]: 578 ng·h/mL
Cmax [4, 18]: 31.2 ng/mL
Cmax [4, 19]: 27.5 ng/mL
Cmax [4, 20]: 35.5 ng/mL
Cmax [4, 21]: 29.5 ng/mL
Tmax ([4]; 120 mg, part 2, 120 mg, fasted): 4 h
Tmax ([4]; 120 mg, part 2, 120 mg, low-fat meal): 6 h
AUC(0-inf) [4, 22]: 743 ng·h/mL
AUC(0-inf) [4, 23]: 706 ng·h/mL
AUC(0-inf) [4, 24]: 862 ng·h/mL
AUC(0-inf) [4, 25]: 768 ng·h/mL
Cmax [4, 22]: 41 ng/mL
Cmax [4, 23]: 39.5 ng/mL
Cmax [4, 24]: 45.8 ng/mL
Cmax [4, 25]: 43 ng/mL
Tmax ([4]; 160 mg, part 2, 160 mg, fasted): 6 h
Tmax ([4]; 160 mg, part 2, 160 mg, low-fat meal): 6 h
Effect of a low-fat meal on PK ([4]; mobocertinib and its active metabolites): did not affect the PK
AUC∞, Geometric LS Mean Ratio (90%CI) [4, 26]: 1.02 (0.90‐1.15)
Cmax, Geometric LS Mean Ratio (90%CI) [4, 26]: 0.88 (0.71‐1.09)
Cmax, Geometric LS Mean Ratio (90%CI) ([4]; part 2, 160 mg, low-fat meal (test) vs fasted (reference)): 0.96
Time for which mean plasma concentrations were quantifiable ([4]; part 2, 120 and 160 mg, low-fat meal and fasted): up to 168 hours
Route of elimination [5]: eliminated almost completely through feces
Slope (95% CI) of regression of log mobocertinib AUC∞ vs log dose [6]: 1.20 (0.93‐1.46)
Maximum tolerated dose [7]: 10 mg/kg
Accumulation ratio of AUC0-24, cycle 2 day 1 over cycle 1 day 1 ([8]; 160 mg once daily, repeat dosing, ref NCT02716116): 1.03
Maximum tolerated dose ([8]; once daily, patients): 160 mg
Tmax ([9]; human, plasma, oral, 160 mg): 5 to 6 h
AUC∞, LS Geometric Mean Ratio (90%CI) [9, 27]: 0.96
Cmax, LS Geometric Mean Ratio (90%CI) [9, 27]: 0.93
Tmax [10]: 4 to 6 h
Tmax ([10]; 80 mg): 4 h
Tmax ([10]; 120 mg): 6 h
Tmax ([10]; 160 mg): 6 h
Time for which analyte was quantifiable in plasma ([10]; part 1, 20 mg mobocertinib cohort): up to 72 hours
CL/F, Geometric mean (% CV) ([10]; part 1, 20 mg single oral dose): 314 (11.9) L/h
CL/F, Mean (SD) ([10]; part 1, 20 mg single oral dose): 316 (37.5) L/h
Time for which analyte was quantifiable in plasma ([10]; part 1, 40 mg mobocertinib cohort): ≤ 96 h
CL/F, Geometric mean (% CV) ([10]; part 1, 40 mg single oral dose): 249 (49.5) L/h
CL/F, Mean (SD) ([10]; part 1, 40 mg single oral dose): 283 (140.1) L/h
Time for which analyte was quantifiable in plasma ([10]; part 1, 80 mg mobocertinib cohort): ≤ 96 h
CL/F, Geometric mean (% CV) ([10]; part 1, 80 mg single oral dose): 312 (72.0) L/h
CL/F, Mean (SD) ([10]; part 1, 80 mg single oral dose): 378 (272.2) L/h
Time for which analyte was quantifiable in plasma ([10]; part 1, 120 mg mobocertinib cohort): ≤ 96 h
CL/F, Geometric mean (% CV) [10, 28]: 263 (56.9) L/h
CL/F, Mean (SD) [10, 28]: 292 (166.2) L/h
Time for which analyte was quantifiable in plasma ([10]; part 1, 160 mg mobocertinib cohort): ≤ 168 h
CL/F, Geometric mean (% CV) [10, 29]: 157 (33.2) L/h
CL/F, Mean (SD) [10, 29]: 168 (55.7) L/h
Genotoxicity [11]: no evidence of genotoxicity
Percent contribution of CYP3A4/5 to metabolism (CYP3A4/5): > 90%

C#Cc1cccc(Nc2ncnc3cc(OCCOC)c(OCCOC)cc23)c1 [erlotinib]
Median progression-free survival (EGFR): ≈ 2 months

C=CC(=O)Nc1cc(Nc2nccc(-c3cn(C)c4ccccc34)n2)c(OC)cc1N(C)CCN(C)C [osimertinib]
Median progression-free survival (EGFR): ≈ 2 months
